Measured values reported in the supplement of paper PMC10307832.

What was measured:
Test in all cases: relative viability (nuclei count vs DMSO), 5 days (fraction); higher = more cells survive
Ruxolitinib + Dasatinib = compound: N#CC[C@H](C1CCCC1)n1cc(-c2ncnc3[nH]ccc23)cn1 [Ruxolitinib] + Cc1nc(Nc2ncc(C(=O)Nc3c(C)cccc3Cl)s2)cc(N2CCN(CCO)CC2)n1 [Dasatinib] (partner 0.075 µM)
Summary of the method: (§1)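 Lung cancer cell lines in 1536-well plates were dosed by pin tool the day after seeding, either with one drug alone or with a fixed anchor-drug dose plus five library-drug doses (not always all listed) in √10 steps. After 5 days, cells were fixed and their nuclei stained in one step (final 0.05% Triton X-100, 1% formaldehyde, 1 ug/ml Hoechst), then counted on 4× images. Relative viability is the nuclei count in treated wells divided by that in vehicle wells. Values are medians of duplicate plates.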

Ruxolitinib + Pemetrexed = compound: N#CC[C@H](C1CCCC1)n1cc(-c2ncnc3[nH]ccc23)cn1 [Ruxolitinib] + Nc1nc2[nH]cc(CCc3ccc(C(=O)N[C@@H](CCC(=O)O)C(=O)O)cc3)c2c(=O)[nH]1 [Pemetrexed] (partner 0.2 µM)
Summary of the method: as §1

Ruxolitinib + Foretinib = compound: N#CC[C@H](C1CCCC1)n1cc(-c2ncnc3[nH]ccc23)cn1 [Ruxolitinib] + COc1cc2c(Oc3ccc(NC(=O)C4(C(=O)Nc5ccc(F)cc5)CC4)cc3F)ccnc2cc1OCCCN1CCOCC1 [Foretinib] (partner 0.25 µM)
Summary of the method: as §1

Ruxolitinib + Navitoclax = compound: N#CC[C@H](C1CCCC1)n1cc(-c2ncnc3[nH]ccc23)cn1 [Ruxolitinib] + CC1(C)CCC(c2ccc(Cl)cc2)=C(CN2CCN(c3ccc(C(=O)NS(=O)(=O)c4ccc(N[C@H](CCN5CCOCC5)CSc5ccccc5)c(S(=O)(=O)C(F)(F)F)c4)cc3)CC2)C1 [Navitoclax] (partner 0.5 µM)
Summary of the method: as §1

| Cell Line | relative viability (Ruxolitinib + Dasatinib; first compound 0.253 µM) | relative viability (Ruxolitinib + Dasatinib; first compound 0.8 µM) | relative viability (Ruxolitinib + Dasatinib; first compound 2.53 µM) | relative viability (Ruxolitinib + Dasatinib; first compound 8 µM) | relative viability (Ruxolitinib + Pemetrexed; first compound 0.08 µM) | relative viability (Ruxolitinib + Pemetrexed; first compound 0.253 µM) | relative viability (Ruxolitinib + Pemetrexed; first compound 0.8 µM) | relative viability (Ruxolitinib + Pemetrexed; first compound 2.53 µM) | relative viability (Ruxolitinib + Pemetrexed; first compound 8 µM) | relative viability (Ruxolitinib + Foretinib; first compound 0.253 µM) | relative viability (Ruxolitinib + Foretinib; first compound 0.8 µM) | relative viability (Ruxolitinib + Foretinib; first compound 2.53 µM) | relative viability (Ruxolitinib + Foretinib; first compound 8 µM) | relative viability (Ruxolitinib + Navitoclax; first compound 0.253 µM) | relative viability (Ruxolitinib + Navitoclax; first compound 0.8 µM) | relative viability (Ruxolitinib + Navitoclax; first compound 2.53 µM) | relative viability (Ruxolitinib + Navitoclax; first compound 8 µM) | relative viability (Ruxolitinib + Dasatinib; first compound 0.08 µM) | relative viability (Ruxolitinib + Foretinib; first compound 0.08 µM) | relative viability (Ruxolitinib + Navitoclax; first compound 0.08 µM) |
| --- | --- | --- | --- | --- | --- | --- | --- | --- | --- | --- | --- | --- | --- | --- | --- | --- | --- | --- | --- | --- |
| NCI-H1650 | 0.265 | 0.343 | 0.252 | 0.29 | 0.311 | 0.43 | 0.351 | 0.333 | 0.346 | 1.25 | 1.29 | 1.27 | 1.13 | 1.05 | 1.23 | 0.96 | 0.971 |  |  |  |
| NCI-H1651 | 0.37 | 0.389 | 0.337 | 0.29 | 0.578 | 0.597 | 0.593 | 0.599 | 0.643 | 0.791 | 0.947 | 0.776 | 0.95 | 1.08 | 1.11 | 1.36 | 0.996 | 0.323 | 0.621 | 0.978 |
| NCI-H1666 | 0.757 | 0.838 | 0.76 | 0.528 | 1.01 | 0.814 | 0.988 | 0.786 | 0.887 | 0.93 | 1.01 | 0.856 | 0.892 | 1.01 | 1.1 | 0.759 | 1.07 | 0.869 | 0.844 | 0.876 |
| NCI-H1734 | 0.433 | 0.503 | 0.38 | 0.341 | 0.399 | 0.366 | 0.437 | 0.369 | 0.456 | 0.713 | 0.894 | 0.759 | 0.815 | 0.698 | 0.899 | 0.724 | 0.785 | 0.522 | 0.862 | 0.749 |
| NCI-H1755 | 0.394 | 0.472 | 0.341 | 0.213 | 0.459 | 0.448 | 0.414 | 0.407 | 0.42 | 0.892 | 0.91 | 0.852 | 0.755 | 0.925 | 1 | 0.844 | 0.732 | 0.473 | 0.946 | 0.919 |
| NCI-H1793 | 0.394 | 0.389 | 0.303 | 0.243 | 0.835 | 0.938 | 1.15 | 1.06 | 0.664 | 0.668 | 0.959 | 0.761 | 0.54 | 0.374 | 0.486 | 0.621 | 0.266 | 0.286 | 0.604 | 0.494 |
| NCI-H1915 | 0.305 | 0.319 | 0.217 | 0.204 | 0.512 | 0.501 | 0.515 | 0.518 | 0.439 | 1.11 | 1.17 | 0.947 | 0.982 | 0.838 | 0.791 | 0.731 | 0.691 | 0.33 | 1.1 | 0.79 |
| NCI-H1944 | 0.17 | 0.209 | 0.168 | 0.167 | 0.671 | 0.68 | 0.651 | 0.65 | 0.694 | 0.886 | 0.876 | 0.873 | 0.877 | 0.959 | 1.03 | 0.887 | 0.955 | 0.204 | 0.839 | 0.998 |
| NCI-H1975 | 0.374 | 0.357 | 0.363 | 0.227 | 0.283 | 0.334 | 0.329 | 0.318 | 0.266 | 0.933 | 0.995 | 0.956 | 0.603 | 1.04 | 1.15 | 0.698 | 0.591 | 0.387 | 1.04 | 1.13 |
| NCI-H1993 | 0.523 | 0.579 | 0.488 | 0.583 | 0.662 | 0.525 | 0.618 | 0.633 | 0.621 | 0.698 | 0.821 | 0.857 | 0.817 | 0.869 | 0.998 | 1.02 | 0.932 | 0.532 | 0.752 | 0.858 |
| NCI-H2009 | 0.263 | 0.273 | 0.129 | 0.176 | 1.03 | 1.03 | 1.03 | 0.936 | 0.745 | 1.27 | 1.23 | 1.15 | 0.876 | 1.2 | 1.16 | 0.961 | 0.897 | 0.354 | 1.21 | 1.2 |
| NCI-H2023 | 0.336 | 0.575 | 0.332 | 0.354 | 0.264 | 0.271 | 0.23 | 0.233 | 0.23 | 0.897 | 0.947 | 0.978 | 1.32 | 0.94 | 1.08 | 0.939 | 0.855 | 0.616 | 0.682 | 1 |
| NCI-H2085 | 0.268 | 0.282 | 0.293 | 0.299 | 0.918 | 0.825 | 1.09 | 0.783 | 0.653 | 0.984 | 1.13 | 0.797 | 0.732 | 1.07 | 1.2 | 1.11 | 0.999 | 0.278 | 1.03 | 1.12 |
